{"source": "patent US20230295152A1", "about": "(SENDA BIOSCIENCES, INC., priority 2019, published 2023)", "key": {"[1]": {"test": "Plasma Protein Binding with Ultracentrifugation Method, rat", "format": "in vitro ADME", "description": "The frozen plasma (stored at −80° C.) was thawed in a 37° C. water bath, followed by centrifugation at 3,220 g for 10 minutes to remove clots. The supernatant was removed into a new tube as the spun plasma. The spun plasma was pre-warmed in a 37° C. water bath for 10 minutes. The stock solutions of test compounds were diluted to 200 μM in DMSO, and then spiked into the plasma. Duplicate samples were prepared. The final concentration of compound was 1.0 μM. The final concentration of organic solvent was 0.5%. Warfarin was used as positive control in the assay. 1.0 mL of the spiked plasma was transferred to a new balance ultracentrifuge tube. Samples were incubated at 37° C., 5% CO2 for 30 minutes. After incubation, the balance ultracentrifuge tubes were centrifuged at 600,000 g for 5.5 hours at 37° C. After centrifugation, 50 μL solution was removed from the center of the ultracentrifuge tubes as the post-ultracentrifugation samples, followed by the addition of 50 μL blank plasma and 400 μL quench solution (acetonitrile containing internal standards (IS, 100 nM Alprazolam, 500 nM Labetalol and 2 μM Ketoprofen)) to precipitate protein and release compounds. Samples were vortexed for 2 minutes, followed by centrifugation at 20,000 g for 15 minutes at room temperature. The supernatant was diluted with ultrapure water and then used for LC-MS/MS analysis. Stability samples was prepared by transferring 50 μL of the spiked plasma to 0.6 mL tubes and incubated at 37° C., 5% CO2 for 0.5 and 6 hours. After incubation, 50 μL PBS (100 mM, pH7.4) and 400 μL quench solution were added to the stability samples. And then stability samples were treated the same way as the post-ultracentrifugation samples. The supernatant was diluted with ultrapure water and then used for LC-MS/MS analysis. 0.5 hour time point samples were also used as no-spun controls. Time 0 samples were prepared by transferring 50 μL spiked plasma to 0.6 mL tubes containing 50 μL PBS, followed by the addition of 400 μL quench solution to precipitate protein and release compound. And then these samples were treated the same way as the post-ultracentrifugation samples. The supernatant was diluted with ultrapure water and then used for LC-MS/MS analysis.\nData Analysis: All calculations were carried out using Microsoft Excel. The concentrations of test compound in plasma samples and post-ultracentrifugation plasma was determined from peak areas. The percentages of test compound bound was calculated as follows: […]\n“+++” indicates a % bound value less than 50, “++” indicates a % bound value between 50 and 75, and “+” indicates a % bound value above 75."}, "[2]": {"test": "In vivo PK study in male Sprague Dawley rats", "settings": "for AUC(0-t): read-out: AUCLast Mean", "description": "(§1) The studies were conducted in male Sprague Dawley rats, three rats per group, or male CD1 mice, three mice per group. Compounds were dosed 1.0 mg/Kg i.v. (vehicle ethanol: % PEG400 in deionized water, in proportions suitable for dosing a clear solution) and 3.0 mg/kg or 10 mg/kg p.o. (vehicle: 1% methyl cellulose: 1,500 cP in DI water (w/v)). A11 animals had free access to food and water. Rat i.v. PK time points: Plasma: 0.083, 0.25, 0.5, 1, 2, 4, 8 and 24 h; Rat p.o. PK time points: Plasma: 0.25, 0.5, 1, 2, 4, 8 and 24 h. Mouse i.v. PK time points: Plasma: 0.083, 0.25, 0.5, 1, 2, 4, 8, 24, and 48 h; Mouse p.o. PK time points: Plasma: 0.25, 0.5, 1, 2, 4, 8, 24, and 48 h. Concentrations of compound in the plasma samples were analyzed using a LC-MS/MS method. WinNonlin (Phoenix™, version 6.1) or other similar software was used for pharmacokinetic calculations."}, "[3]": {"test": "In vivo PK study in male CD1 mice", "settings": "for AUC(0-t): read-out: AUCLast Mean", "description": "as §1"}, "[4]": {"settings": "male, Sprague Dawley, rat, plasma, rats, 1 mg/kg IV"}, "[5]": {"settings": "male, Sprague Dawley, rat, plasma, rats, PO, dosage of 3 mg/kg"}, "[6]": {"settings": "male, CD1, mouse, plasma, mice, 1 mg/kg IV"}, "[7]": {"settings": "male, CD1, mouse, plasma, mice, 10 mg/kg PO"}}, "data": [{"smiles": "C[C@@H](CO)n1cnc2c(-c3cccnc3)nc(-c3ccc(C(F)(F)F)cn3)cc2c1=O", "note": "[Compound 46, (S)-3-(1-hydroxypropan-2-yl)-8-(pyridin-3-yl)-6-(5-(trifluoromethyl)pyridin-2-yl)pyrido[3,4-d]pyrimidin-4(3H)-one]", "values": [{"measurement": "fraction unbound at 30 min, 1 μM", "setting": "[1]; rat plasma, 1.0 μM, read-out: Rat plasma protein binding (% bound)", "value": "< 0.25"}, {"measurement": "fraction unbound at 5.5 h, 1 μM", "setting": "[1]; rat, plasma, read-out: Plasma Protein Binding PPB (r) % (converted)", "value": 0.102}, {"measurement": "Rat CL (% Qh)", "setting": "[2]; in vivo DMPK profile, rat", "value": 9, "unit": "% Qh"}, {"measurement": "clearance", "setting": "[2]; male, Sprague Dawley, plasma, intravenous, 1 mg/kg, in vivo DMPK profile, rat, read-out: Rat CL", "value": 6.7, "unit": "mL/min/kg"}, {"measurement": "half-life", "setting": "[2]; male, Sprague Dawley, plasma, intravenous, 1 mg/kg, in vivo DMPK profile, rat, read-out: Rat T1/2 (converted)", "value": 5.6, "unit": "h"}, {"measurement": "Vd", "setting": "[2]; male, Sprague Dawley, plasma, intravenous, 1 mg/kg, in vivo DMPK profile, rat, read-out: Rat Vss", "value": 3.1, "unit": "L/kg"}, {"measurement": "bioavailability", "setting": "[2]; male, Sprague Dawley, plasma, oral, 3 mg/kg, in vivo DMPK profile, rat, read-out: Rat % F", "value": 89, "unit": "%"}, {"measurement": "C0", "setting": "[2]; [4]", "value": 301, "unit": "ng/mL"}, {"measurement": "AUC(0-inf)", "setting": "[2]; male, Sprague Dawley, rat, plasma, rats, 1 mg/kg IV, read-out: AUCInf Mean", "value": 2490, "unit": "ng·h/mL"}, {"measurement": "AUC(0-t)", "setting": "[2]; [4]", "value": 2350, "unit": "ng·h/mL"}, {"measurement": "half-life", "setting": "[2]; male, Sprague Dawley, rat, plasma, rats, 1 mg/kg IV, read-out: T1/2 Mean (converted)", "value": 5.65, "unit": "h"}, {"measurement": "Cmax", "setting": "[2]; [5]", "value": 462, "unit": "ng/mL"}, {"measurement": "Tmax", "setting": "[2]; [5]", "value": 3.33, "unit": "h"}, {"measurement": "AUC(0-t)", "setting": "[2]; [5]", "value": 6280, "unit": "ng·h/mL"}, {"measurement": "bioavailability", "setting": "[2]; male, Sprague Dawley, rat, plasma, rats, PO, dosage of 3 mg/kg, read-out: Bioavailability", "value": 89, "unit": "%"}, {"measurement": "half-life", "setting": "[2]; male, Sprague Dawley, rat, plasma, rats, PO, dosage of 3 mg/kg, read-out: T1/2 Mean (converted)", "value": 5.73, "unit": "h"}, {"measurement": "CI Mean", "setting": "[2]; rats, 1 mg/kg IV", "value": 112, "unit": "mL/min/kg"}, {"measurement": "Mouse CL (% Qh)", "setting": "[3]; in vivo DMPK profile, mouse", "value": 2, "unit": "% Qh"}, {"measurement": "C0", "setting": "[3]; [6]", "value": 470, "unit": "ng/mL"}, {"measurement": "AUC(0-t)", "setting": "[3]; [6]", "value": 8400, "unit": "ng·h/mL"}, {"measurement": "half-life", "setting": "[3]; male, CD1, mouse, plasma, mice, 1 mg/kg IV, read-out: T1/2 Mean (converted)", "value": 15.7, "unit": "h"}, {"measurement": "Cmax", "setting": "[3]; [7]", "value": 2370, "unit": "ng/mL"}, {"measurement": "AUC(0-t)", "setting": "[3]; [7]", "value": 67700, "unit": "ng·h/mL"}, {"measurement": "bioavailability", "setting": "[3]; male, CD1, mouse, plasma, mice, 10 mg/kg PO, read-out: Bioavailability", "value": 80.6, "unit": "%"}, {"measurement": "half-life", "setting": "[3]; male, CD1, mouse, plasma, mice, 10 mg/kg PO, read-out: T1/2 Mean (converted)", "value": 8, "unit": "h"}, {"measurement": "clearance", "setting": "[3]; male, CD1, plasma, intravenous, 1 mg/kg, in vivo DMPK profile, mouse, read-out: Mouse CL", "value": 1.8, "unit": "mL/min/kg"}, {"measurement": "half-life", "setting": "[3]; male, CD1, plasma, intravenous, 1 mg/kg, in vivo DMPK profile, mouse, read-out: Mouse T1/2 (converted)", "value": 15.7, "unit": "h"}, {"measurement": "Vd", "setting": "[3]; male, CD1, plasma, intravenous, 1 mg/kg, in vivo DMPK profile, mouse, read-out: Mouse Vss", "value": 2.3, "unit": "L/kg"}, {"measurement": "bioavailability", "setting": "[3]; male, CD1, plasma, oral, 10 mg/kg, in vivo DMPK profile, mouse, read-out: Mouse % F", "value": 80.6, "unit": "%"}, {"measurement": "CI Mean", "setting": "[3]; mice, 1 mg/kg IV", "value": 29.3, "unit": "mL/min/kg"}]}]}
